Data on 18 compounds can be found in ChEMBL document CHEMBL1129772, “Synthesis and radical scavenging activity of 3,3-dialkyl-3,4-dihydro-isoquinoline 2-oxides” (Bioorg Med Chem Lett, 1996).

Broadly, the IC50 is the concentration needed to halve the response being measured. A high value points to weaker potency.

In the assay the test system is Liposome. In words: In vitro inhibition of peroxyl radical-dependent oxidation of liposomes from soybean phosphatidylcholine by ethanol injection. Type of assay: functional, Glycine max.
With `CC1(C)Cc2cc(Cl)cc(Cl)c2C=[N+]1[O-]`, half-maximal inhibition (IC50) required 18 µM. For `[O-][N+]1=Cc2ccccc2CC12CCCCC2`, the IC50 worked out at 8 µM. The value for `COc1ccc2c(c1)C=[N+]([O-])C(C)(C)C2` was 67 µM; that for `CC1(C)Cc2ccccc2C=[N+]1[O-]` was 200 µM; that for `COc1cc2c(cc1OC)CC(C)(C)[N+]([O-])=C2` was 130 µM. As to `CC1(C)Cc2cc(F)ccc2C=[N+]1[O-]`, half-maximal inhibition (IC50) required 160 µM.

Regarding `[O-][N+]1=Cc2ccccc2CC12CCCC2`, the IC50 is 21 µM. Compound `CC1(C)Cc2c(Cl)cccc2C=[N+]1[O-]` yielded a half-inhibitory concentration (IC50) of 24 µM. Compound `COc1ccc2c(c1)CC1(CCCCC1)[N+]([O-])=C2` came in with an IC50 of 11 µM.

For the compound `CC(C)(C)/[N+]([O-])=C/c1ccccc1`, inhibition was half-maximal at 2170 µM (IC50).

In the case of `COc1cccc2c1C=[N+]([O-])C1(CCCCC1)C2`, the IC50 amounted to 38 µM. This IC50 lies about 57-fold lower than the previous one. For `CC1(C)Cc2cc(Cl)ccc2C=[N+]1[O-]`, the concentration for half-maximal inhibition (IC50) was 55 µM. For the compound `CC1(C)Cc2cccc(Cl)c2C=[N+]1[O-]`, the IC50 is 45 µM. This IC50 and that of the compound before are within 1.5-fold of each other. The value for `CC1(C)Cc2ccc(Cl)cc2C=[N+]1[O-]` was 41 µM.

As to `CC1(C)Cc2ccc(F)cc2C=[N+]1[O-]`, inhibition was half-maximal at 67 µM (IC50). `COc1ccc2c(c1)CC(C)(C)[N+]([O-])=C2` gave a half-inhibitory concentration (IC50) of 69 µM. The value for `[O-][N+]1=Cc2cc(Cl)ccc2CC12CCCCC2` was 3 µM. `COc1ccc(F)c2c1CC(C)(C)[N+]([O-])=C2` showed a half-inhibitory concentration (IC50) of 56 µM.
